Where only a bound is given, the exact number is not on record here.

This experiment deals with T1, human IsK protein (UniProt P15382+P70057).
T1 construct: expressed in transfected cells; host or cells: Xenopus laevis oocytes injected with in vitro synthesized IsK RNA
Description: Inhibition of IsK current in Xenopus oocytes expressing human IsK (two microelectrode voltage clamp). The following applies: human IsK expressed in Xenopus oocytes; voltage jumps to -10 mV lasting 15 s; pH 7.5; room temperature; extrapolated using the Hill equation; read-out: IC-50 (inhibition of IsK control current). The class given is cell-based. Here is the method:
IsK channels from man, rat or guinea-pig were expressed in Xenopus oocytes. To do this, oocytes were first isolated from Xenopus Laevis and defolliculated. IsK -encoding RNA synthesized in vitro was then injected into these oocytes. After IsK protein expression for 2-8 days, IsK currents were measured in the oocytes using the two microelectrode voltage clamp technique. The IsK channels were in this case as a rule activated using voltage jumps to -10 mV lasting 15 s. The bath was irrigated with a solution of the following composition: NaCl 96 mM, KCl 2 mM, CaCl2 1.8 mM, MgCl2 1 mM, HEPES 5 mM (titrated with NaOH to pH 7.5). These experiments were carried out at room temperature. The following were employed for acquiring data and analysis: Geneclamp amplifier (Axon Instruments, Foster City, U.S.A.) and MacLab D/A converter and software (ADInstruments, Castle Hill, Australia). The substances according to the invention were tested by adding them to the bath solution in different concentrations. The effects of the substances were calculated as the percentage inhibition of the IsK control current, which was obtained when no substance was added to the solution. The data were then extrapolated using the Hill equation in order to determine the inhibitory concentrations IC50 for the respective substances.
In the described manner, using the human IsK protein, the following IC50 values were determined for the compounds according to the invention: […]

T1 sequence (P70057 whole entry): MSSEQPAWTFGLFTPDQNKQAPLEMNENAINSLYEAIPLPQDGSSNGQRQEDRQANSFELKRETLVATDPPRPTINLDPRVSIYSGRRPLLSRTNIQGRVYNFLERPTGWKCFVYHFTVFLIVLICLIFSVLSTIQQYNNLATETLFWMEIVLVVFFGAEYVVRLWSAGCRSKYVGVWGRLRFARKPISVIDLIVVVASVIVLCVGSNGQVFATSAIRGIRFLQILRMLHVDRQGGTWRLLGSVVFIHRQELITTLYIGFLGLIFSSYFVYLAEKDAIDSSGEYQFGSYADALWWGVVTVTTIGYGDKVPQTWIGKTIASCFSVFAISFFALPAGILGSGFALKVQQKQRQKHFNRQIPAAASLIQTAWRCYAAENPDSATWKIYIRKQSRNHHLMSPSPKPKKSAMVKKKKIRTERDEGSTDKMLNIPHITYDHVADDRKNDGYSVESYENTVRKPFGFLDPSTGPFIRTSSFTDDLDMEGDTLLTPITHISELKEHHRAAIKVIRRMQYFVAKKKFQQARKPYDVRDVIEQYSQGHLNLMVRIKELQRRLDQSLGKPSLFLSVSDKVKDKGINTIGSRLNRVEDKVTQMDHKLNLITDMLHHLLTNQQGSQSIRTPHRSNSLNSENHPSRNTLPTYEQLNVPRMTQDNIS

As to `CCCCOc1ccc2c(c1)C(N(C)S(C)(=O)=O)CC2(C)C` (stereo not shown) [Example 13, 6-Butoxy-3,3-dimethyl-1-(N-methyl-N-methylsulfonyl)aminoindan], the IC50 is 1.2 µM.
Turning to `CCCCN(C1CS(=O)(=O)c2ccccc21)S(C)(=O)=O` (stereo not shown) [Example 5, N-Butyl-N-(1,1-dioxo-2,3-dihydro-1H-benzo[b]thiophen-3-yl)-methanesulfonamide], the IC50 was > 10 µM.
With `CCCCCCN(C1CC(C)(C)c2ccccc21)S(C)(=O)=O` (stereo not shown) [Example 3, 3,3-Dimethyl-1-(N-hexyl-N-methylsulfonyl)aminoindan], the IC50 was < 10 µM.
As for `CC1(C)CC(N(Cc2ccncc2)S(C)(=O)=O)c2cc([N+](=O)[O-])ccc21` (stereo not shown) [Example 12, 3,3-Dimethyl-6-nitro-1-[N-(4-pyridylmethyl)-N-methylsulfonyl]aminoindan], the figure is ~2 µM; as for `CCS(=O)(=O)N(C)C1CC(C)(C)c2ccccc21` (stereo not shown) [Example 2, 3,3-Dimethyl-1-(N-ethylsulfonyl-N-methyl)aminoindan], ~15 µM; as for `CCCCOc1ccc2c(c1)C(N(CC)S(C)(=O)=O)CC2(C)C` (stereo not shown) [Example 14, 6-Butoxy-3,3-dimethyl-1-(N-ethyl-N-methylsulfonyl)aminoindan], 0.44 µM.
Turning to `CCCCN(C1CC(C)(C)c2ccc([N+](=O)[O-])cc21)S(C)(=O)=O` (stereo not shown) [Example 11, 3,3-Dimethyl-6-nitro-1-(N-butyl-N-methylsulfonyl)aminoindan], the IC50 is 2.7 µM.
